In data set [1] the target is T1, neuronal nicotinic acetylcholine receptors (Rattus norvegicus, UniProt P09483+P12390).
T1 construct: crude synaptic membrane preparations from whole rat brain; from tissue; host or cells: whole rat brain, crude synaptic membranes
As to the kind of experiment: Binding of [3H]-cytisine to neuronal nicotinic acetylcholine receptors, crude synaptic membranes from whole rat brain. The protocol:
The In Vitro protocols for determination of nicotinic acetylcholine channel receptor binding potencies of ligands were determined as follows.
Binding of [^3H]-cytisine ([^3 H]-CYT) to neuronal nicotinic acetylcholine receptors was accomplished using crude synaptic membrane preparations from whole rat brain (Pabreza et al., Molecular Pharmacol., 1990, 39:9). Washed membranes were stored at —80° C. prior to use. Frozen aliquots were slowly thawed and resuspended in 20 volumes of buffer (containing: 120 mM NaCl, 5 mM KCl, 2 mM MgCl2, 2 mM CaCl2 and 50 mM Tris-Cl, pH 7.4 @4° C.). After centrifuging at 20,000×g for 15 minutes, the pellets were resuspended in 30 volumes of buffer.
The test compounds were dissolved in water to make 10 mM stock solutions. Each solution was then diluted (1:100) with buffer (as above) and further taken through seven serial log dilutions of produce test solution from 10^−5 to 10^−11 M.
Homogenate (containing 125-150 μg protein) was added to triplicate tubes containing the range of concentrations of test compound described above and [^3H]-CYT (1.25 nM) in a final volume of 500 μL. Samples were incubated for 60 minutes at 4° C., then rapidly filtered through Whatman GF/B filters presoaked in 0.5% polyethyleneimine using 3×4 mL of ice-cold buffer. The filter are counted in 4 mL of Ecolume® (ICN). Nonspecific binding was determined in the presence of 10 μM (−)-nicotine and values were expressed as a percentage of total binding. IC50 values were determined with the RS-1 (BBN) nonlinear least squares curve-fitting program and IC50 values were converted to Ki values using the Cheng and Prusoff correction ([…].

The next data set has as its system mouse hot plate paradigm. As to the kind of experiment: Mouse hot plate paradigm (analgesia). It is filed as in vivo. Particulars: ip, 0.5 h, mice, intraperitoneal, dosed 30 minutes prior to testing, hot plate 55° C., increase in tenth jump latency relative to control, read-out: minimally effective dose (MED). The procedure: An in vivo protocol was utilized to determine the effectiveness of nicotinic acetylcholine receptor ligands as analgesic agents in the mouse hot plate paradigm.
Separate groups of mice, (n=8/group) were utilized for each dose group. All drugs were administered by the intraperitoneal route of administration. Test drugs were dissolved in water to make a 6.2 mM stock solution. Animals were dosed with this solution (10 mL/kg body weight) for a 62 micromol/kg dose. Lower doses were administered similarly, following serial dilution of the stock solution in half-log increments. Animals were dosed 30 minutes prior to testing in the hot plate. The hot-plate utilized was an automated analgesia monitor (Model #AHP16AN, Omnitech Electronics, Inc. of Columbus, Ohio). The temperature of the hot plate was maintained at 55° C. and a cut-off time of 180 seconds was utilized. Latency until the tenth jump was recoreded as the dependent measure. An increase in the tenth jump latency relative to the control was considered an effect.

One may read the melting point as the temperature of the solid-liquid transition. In general, Ki refers to a measure of affinity in units of concentration, obtained from inhibition or displacement. A high value points to a looser hold on the target.

Structures can show the parent of a compound that is named as a salt.

T1 sequence (P09483 31-630): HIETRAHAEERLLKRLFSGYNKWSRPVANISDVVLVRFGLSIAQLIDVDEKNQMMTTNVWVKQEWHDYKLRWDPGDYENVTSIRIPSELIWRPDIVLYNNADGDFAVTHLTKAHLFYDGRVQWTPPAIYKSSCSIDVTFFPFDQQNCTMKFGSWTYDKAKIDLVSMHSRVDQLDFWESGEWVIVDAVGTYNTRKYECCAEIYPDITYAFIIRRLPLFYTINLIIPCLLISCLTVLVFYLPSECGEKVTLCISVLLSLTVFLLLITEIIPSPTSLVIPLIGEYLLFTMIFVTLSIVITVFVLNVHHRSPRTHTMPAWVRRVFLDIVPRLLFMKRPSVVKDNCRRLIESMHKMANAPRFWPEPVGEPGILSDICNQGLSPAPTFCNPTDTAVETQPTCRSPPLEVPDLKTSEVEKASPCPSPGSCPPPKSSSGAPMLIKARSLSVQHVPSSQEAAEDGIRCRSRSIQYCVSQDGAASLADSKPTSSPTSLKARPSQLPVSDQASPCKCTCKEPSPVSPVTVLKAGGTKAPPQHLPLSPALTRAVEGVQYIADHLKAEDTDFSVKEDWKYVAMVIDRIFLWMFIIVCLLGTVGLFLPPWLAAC
T1 sequence (P12390 25-500): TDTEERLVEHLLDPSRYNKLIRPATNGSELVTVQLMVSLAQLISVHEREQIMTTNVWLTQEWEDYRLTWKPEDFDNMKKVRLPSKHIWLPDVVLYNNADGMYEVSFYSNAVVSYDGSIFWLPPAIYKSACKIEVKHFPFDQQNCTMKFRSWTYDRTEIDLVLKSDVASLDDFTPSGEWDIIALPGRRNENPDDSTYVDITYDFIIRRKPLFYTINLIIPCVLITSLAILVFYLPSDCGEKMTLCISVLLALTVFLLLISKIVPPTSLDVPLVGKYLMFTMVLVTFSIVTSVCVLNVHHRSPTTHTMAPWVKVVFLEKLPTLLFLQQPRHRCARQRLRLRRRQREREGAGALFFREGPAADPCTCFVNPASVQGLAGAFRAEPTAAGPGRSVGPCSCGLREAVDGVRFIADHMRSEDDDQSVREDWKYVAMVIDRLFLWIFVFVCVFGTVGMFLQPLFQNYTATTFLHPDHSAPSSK

For `CN(C)[C@H]1CCN(c2ccc(Cl)nc2)C1` (as salt: benzenesulfonate) [Example 3, N-[(3S)-1-(6-chloro-3-pyridinyl)pyrrolidinyl]-N,N-dimethylamine 4-methylbenzenesulfonate], the melting point fell in the range of 190 to 191.5 °C.

`N[C@@H]1CCN(c2cncc(C(F)(F)F)c2)C1` (as salt: hydrochloride) [Example 11, (3R)-1-[5-(trifluoromethyl)-3-pyridinyl]pyrrolidinylamine dihydrochloride] showed a melting point of 234 to 235 °C.

For `N[C@H]1CCN(c2cncc([N+](=O)[O-])c2)C1` (as salt: fumarate) [Example 29, (3S)-1-(5-nitro-3-pyridinyl)pyrrolidinylamine fumarate], the melting point is 213 to 214 °C.

Turning to `N[C@@H]1CCN(c2ccc(Cl)nc2)C1` (as salt: benzenesulfonate) [Example 4, (3R)-1-(6-chloro-3-pyridinyl)pyrrolidinylamine 4-methylbenzenesulfonate], the melting point fell in the range of 224.5 to 225.5 °C.

The compound `CN[C@H]1CCCN(c2cnc(Cl)c(C)c2)C1.Cl` [Example 49, N-[(3S)-1-(6-chloro-5-methyl-3-pyridinyl)piperidin-3-yl]-N-methylamine hydrochloride] gave a melting point of 75 to 77 °C. In data set [1], this compound came in with a Ki of 4.8 nM. In addition, in the data set with mouse hot plate paradigm, the minimal effective dose was found to be 62 µmol/kg.

In turn, `N[C@H]1CCN(c2ccc(Cl)nc2)C1` (as salt: hydrochloride) [Example 2, (3S)-1-(6-chloro-3-pyridinyl)pyrrolidinylamine dihydrochloride] displayed a melting point of over 250 °C.

`N[C@@H]1CCN(c2cnc(Cl)c(Cl)c2)C1` [Example 21, (3R)-1-(5,6-dichloro-3-pyridinyl)pyrrolidinylamine dihydrochloride]: the Ki in data set [1] was found to be 0.13 nM. Further, in the data set with mouse hot plate paradigm, the minimal effective dose came to 6.2 µmol/kg.

Consider `CN[C@H]1CCN(c2ccc(Cl)nc2)C1` [Example 1, N-[(3S)-1-(6-chloro-3-pyridinyl)pyrrolidinyl]-N-methylamine hydrochloride], for which the Ki in data set [1] came out at 44 nM. For the same compound, in the data set with mouse hot plate paradigm, the minimal effective dose was 62 µmol/kg.

Turning to `CN[C@H]1CCN(c2cncc(C(F)(F)F)c2)C1` (as salt: hydrochloride) [Example 14, N-methyl-N-{(3S)-1-[5-(trifluoromethyl)-3-pyridinyl]pyrrolidinyl}amine hydrochloride], the melting point is 240 to 243 °C (dec.).

`CN[C@H]1CCN(c2ccc(Cl)nc2)C1` (as salt: hydrochloride) [Example 1, N-[(3S)-1-(6-chloro-3-pyridinyl)pyrrolidinyl]-N-methylamine hydrochloride] came in with a melting point of over 250 °C.

As to `CN[C@H]1CCN(c2cncc([N+](=O)[O-])c2)C1` (as salt: fumarate) [Example 30, N-methyl-N-[(3S)-1-(5-nitro-3-pyridinyl)pyrrolidinyl]amine fumarate], the melting point lay in the range of 183 to 185 °C.

Turning to `CN[C@H]1CCN(c2cnc(Cl)c(C)c2)C1` [Example 18, N-[(3S)-1-(6-chloro-5-methyl-3-pyridinyl)pyrrolidinyl]-N-methylamine dihydrochloride], the affinity in data set [1], expressed as Ki, was 0.58 nM. In addition, the minimal effective dose with mouse hot plate paradigm turned out to be 6.2 µmol/kg.

The compound `N[C@H]1CCCN(c2cccnc2)C1` (as salt: benzenesulfonate) [Example 41, (3S)-1-(3-pyridinyl)piperidinylamine bis(4-methylbenzenesulfonate)] came in with a melting point of 64 to 66 °C.

Compound `CN[C@H]1CCCN(c2ccc(Cl)nc2)C1` (as salt: hydrochloride) [Example 46, N-[(3S)-1-(6-chloro-3-pyridinyl)piperidin-3-yl]-N-methylamine dihydrochloride] registered a melting point of 120 to 122 °C.

In turn, `N[C@@H]1CCN(c2cncc([N+](=O)[O-])c2)C1` [Example 31, (3R)-1-(5-nitro-3-pyridinyl)pyrrolidinylamine fumarate] displayed a Ki in data set [1] of 3.5 nM. Also, the minimal effective dose in the data set with mouse hot plate paradigm stood at 6.2 µmol/kg.

On to `CN[C@@H]1CCN(c2ccc(Cl)nc2)C1` (as salt: hydrochloride) [Example 5, N-[(3R)-1-(6-chloro-3-pyridinyl)pyrrolidinyl]-N-methylamine hydrochloride], for which the melting point is 265 °C (dec.).

As for `CN[C@@H]1CCN(c2cncc(C(F)(F)F)c2)C1` (as salt: hydrochloride) [Example 12, N-methyl-N-{(3R)-1-[5-(trifluoromethyl)-3-pyridinyl]pyrrolidinyl}amine hydrochloride], the melting point was 265 °C (dec.).

`CN[C@@H]1CCCN(c2ccc(Cl)nc2)C1.Cl.Cl` [Example 48, N-[(3R)-1-(6-chloro-3-pyridinyl)piperidin-3-yl]-N-methylamine dihydrochloride] returned a melting point of 103 to 105 °C. For the same compound, the Ki in data set [1] is 166 nM.

In the case of `N[C@H]1CCCN(c2ccc(Cl)nc2)C1` [Example 45, (3S)-1-(6-chloro-3-pyridinyl)piperidinylamine bis(4-methylbenzenesulfonate)], in data set [1], the affinity, expressed as Ki, was 0.35 nM. For the same compound, the minimal effective dose with mouse hot plate paradigm is 0.62 µmol/kg.

Turning to `Cc1cc(N2CC[C@@H](N)C2)cnc1Cl` [Example 15, (3R)-1-(6-chloro-5-methyl-3-pyridinyl)pyrrolidinylamine hydrochloride], the Ki in data set [1] amounted to 0.03 nM. Also, in the data set with mouse hot plate paradigm, the minimal effective dose worked out at 6.2 µmol/kg.

`NC1CCN(c2ccc(Cl)nc2)C1` (stereo not shown) [Example 7, 1-(6-chloro-3-pyridinyl)-3-pyrrolidinylamine 4-methylbenzenesulfonate] came in with a Ki in data set [1] of 0.12 nM. For the same compound, the minimal effective dose in the data set on mouse hot plate paradigm came to 6.2 µmol/kg.

For `CN[C@H]1CCN(c2cccnc2)C1` [Example 9, N-methyl-N-[(3S)-1-(3-pyridinyl)pyrrolidinyl]amine dihydrochloride], affinity in data set [1] was put at a Ki of 2 nM. Besides, the minimal effective dose in the data set with mouse hot plate paradigm was found to be 62 µmol/kg.

In data set [1], `CN[C@H]1CCN(c2cnc(Cl)c(OC)c2)C1` [Example 24, N-[(3S)-1-(6-chloro-5-methoxy-3-pyridinyl)pyrrolidinyl]-N-methylamine dihydrochloride] came in with a Ki of 4.1 nM. Moreover, the minimal effective dose with mouse hot plate paradigm was determined as 62 µmol/kg.

`N[C@@H]1CCCN(c2ccc(Cl)nc2)C1` [Example 47, (3R)-1-(6-chloro-3-pyridinyl)piperidin-3-ylamine bis(4-methylbenzenesulfonate)] displayed a Ki in data set [1] of 0.38 nM. In addition, in the data set on mouse hot plate paradigm, the minimal effective dose turned out to be 1.9 µmol/kg.

As to `Cc1cc(N2CC[C@H](N)C2)cnc1F` [Example 25, (3S)-1-(6-fluoro-5-methyl-3-pyridinyl)pyrrolidinylamine hydrochloride], in data set [1], the inhibition constant Ki worked out at 0.34 nM. In addition, the minimal effective dose with mouse hot plate paradigm was 6.2 µmol/kg.

`N[C@H]1CCCN(c2ccc(Cl)nc2)C1` (as salt: benzenesulfonate) [Example 45, (3S)-1-(6-chloro-3-pyridinyl)piperidinylamine bis(4-methylbenzenesulfonate)] displayed a melting point of 182 to 184 °C.

`N[C@H]1CCN(c2cncc(C(F)(F)F)c2)C1` (as salt: hydrochloride) [Example 13, (3S)-1-[5-(trifluoromethyl)-3-pyridinyl]pyrrolidinylamine dihydrochloride] yielded a melting point of 235 to 236 °C.

Compound `CN[C@@H]1CCN(c2cncc([N+](=O)[O-])c2)C1` (as salt: fumarate) [Example 32, N-methyl-N-[(3R)-1-(5-nitro-3-pyridinyl)pyrrolidinyl]amine fumarate] gave a melting point of 184 to 185 °C.

For the compound `N[C@@H]1CCN(c2cncc([N+](=O)[O-])c2)C1` (as salt: fumarate) [Example 31, (3R)-1-(5-nitro-3-pyridinyl)pyrrolidinylamine fumarate], the melting point was 212 to 213 °C.

Values taken from US7332504B2, “Heterocyclic substituted aminoazacycles useful as central nervous system agents” (Abbott Laboratories, priority 1999, dated 2008).
